In US20190160035A1, “METHOD OF TREATMENT” (QBIOTICS LIMITED, priority 2016, published 2019):

Experiments:
[1] = Example 1: safety evaluation (clinical parameters, adverse events graded by VCOG-CTCAE); format: in vivo, Canis lupus familiaris (dog)
Method: Clinical parameters such as bodyweight (kg), rectal temperature (° C.), heart rate (HR) per minute, respiratory rate (RR) per minute, general demeanor and body function (e.g. eating, drinking, urine and stools), were collected on each enrolled dog at screening, immediately pre-treatment, at approximately 2-4 and 24 hours post-treatment, and at 7(±2), 14(±2) and 28(±2) days post treatment. An adverse event (AE) was defined as any unfavorable and unintended sign, symptom, or disease temporally associated with the use of the drug, whether or not related to the product (VCOG-CTCAE, 2011). AE were graded according to the VCOG-CTCAE classification which is a descriptive severity scale (grade system) used for AE reporting in dogs treated with antineoplastic therapy.
With the exception of swelling and pain, local tissue pathology as a result of treatment (i.e. tumor necrosis) was not considered an adverse event (AE). AEs such as rapid breathing, mild tachycardia and post treatment lethargy are generally considered to be the result of the powerful local inflammatory response and systemic activation of the dog's immune response during the treatment response phase. In this study, 44 AEs were identified in 15 event types. The majority of identified AEs (28 out of 44; […]) were represented by the ‘mild’ VCOG-CTCAE classification Grade 1 with no intervention required. With the exception of dog C03-T-07, a level of minimal medical intervention was required in only 3 cases. […] With the exception of dog C03-T-07, all reported AEs were transient in nature—resolved by 24-48 h post treatment in the majority of cases.

[2] = test system: MCT (cutaneous and subcutaneous); experiment: Example 5: Compound 1 injection with oral prednisolone and antihistamine co-therapy, RECIST v.1.1 tumor response; format: in vivo, Canis lupus familiaris (dog)
From the text: This study investigates the efficacy and safety of Compound 1 injection for MCT treatment in the presence of corticosteroids administered under defined clinical situations.
Dogs were selected for the study if they met the criteria in Table 1 (Example 1) but where the dog has at least one MCT.
Wherever possible, the tumor and a 2 cm border surrounding the tumor was shaved prior to treatment. To deliver the drug, the needle of the dosing syringe was inserted into the tumor at the injection point and moved in a radial manner in 2- and 3-dimensions with drug delivered to the tumor mass. Study dogs were clinically examined at 2-4 and 24 hours, and 7 (+2), 14 (+2) and 28 (+2) days post-treatment (and unscheduled visits at attending veterinarian discretion).
Each supervising veterinarian was given latitude to provide and record prophylactic and supportive medications as deemed appropriate for managing potential paraneoplastic events and tumor site necrosis following Compound 1 treatment. However, prednisolone and antihistamines were used as co-therapy. Prednisolone therapy commenced on Day −1 and continued for a further 7 days. H1 and H2 antihistamine therapy (chlorpheniramine and famotidine respectively) commenced on the morning of drug treatment and continued for a further 6 days (see Table 23).
RECIST v.1.1 results are summarised in Table 28 which also includes a measure of neoadjuvant prednisolone action (potential tumor shrinkage) between screening and immediate pre-treatment tumor evaluation. Sixteen (16) dogs and eighteen (18) tumors were treated. Raw data for RECIST assessment was collected on Day 0 (immediately pre-treatment) and on Day 28 for fifteen (15) cases. […] With the remaining three (3) cases (C05-T-18, C05-V-01, and C05-V-02), the dogs were not available on Day 28 for RECIST assessment. For dog C05-T-18, the injection site was measured as CR on Days 21 and 37. […] For dog C05-V-01, the injection site was measured as PR on Days 21 and 37 (55% and 60% RECIST reduction respectively). […] For dog […], due to the progressive nature of disease, the animal was removed from study on Day 21.

[3] = test system: MCT (cutaneous and subcutaneous); experiment: Example 7: treatment of MCT (repeat of Example 1), complete response and healing by time point; format: in vivo, dogs; settings: for Complete response: Cumulative % / Complete response: Number of tumors on given study day: 11 treated tumors in 10 dogs; for Healing: Cumulative % / Healing: Number of tumor sites healed on given study day: 11 treated tumors
Method: The study of Example 1 was repeated. The drug used was Compound 1 formulated in 40% propylene glycol and 30 MM acetate buffer at pH 4.2.
While tumor evaluation and measurement data for 11 cases are presented, this actually represents only 10 dogs, one of which had two tumors treated consecutively (identified as cases SI-01 and SI-02). PK sampling was performed only once for this dog (SI-01).
Of the other ten tumors, nine were considered CR by day 7 (+2) and one was CR by day 14 (+2). The investigator also reported that all of these tumors remained a CR on day 28 […].
Healing was more variable for the cases, with one healed at the day 14 visit and over half the tumor sites healed by the day 28 visit. The two cases with the largest tumor volumes at day 0 (SI-04 5.6 cm^3, and SI-11 6.8 cm^3) required healing time beyond the day 28 visit, i.e., an additional four weeks for SI-04 and an additional 19.7 weeks for SI-11. For SI-11, it was noted the dog was licking the tumor site and the investigator felt it may have prolonged the healing time. The investigator believed the wound required intervention on this case that included debridement once on study day 56 followed by periodic bandage replacement.

C/C=C(\C)C(=O)O[C@@H]1[C@@H](C)[C@@]2(O)[C@H]([C@@H]3C(C)(C)[C@]13OC(=O)[C@@H](C)CC)[C@@H]1O[C@]1(CO)[C@@H](O)[C@]1(O)C(=O)C(C)=C[C@H]12 [Compound 1, 12-tigloyl-13-(2-methylbutanoyl)-6,7-epoxy-4,5,9,12,13,20-hexahydroxy-1-tigliaen-3-one]
Number of AEs identified ([1]; 12 dogs, 15 event types): 44 | Share of AEs of VCOG-CTCAE Grade 1 ([1]; 28 out of 44): 61.3% | Dogs that died during the course of the study ([1]; dog C03-T-07, Day 4, veterinarian did not believe Compound 1 directly contributed): 1 | Time by which reported AEs resolved post treatment ([1]; majority of cases, except dog C03-T-07): 24 to 48 h | Number of AEs of ‘mild’ VCOG-CTCAE Grade 1 (no intervention required) ([1]; out of 44 AEs): 28 | Cases requiring minimal medical intervention ([1]; with the exception of dog C03-T-07): 3 | Share of cases with a CR RECIST result ([2]; 14 out of 18 cases): 78% | Number of cases with progressive disease (PD) ([2]; Day 28, 15 cases assessed): 1 | Number of cases with complete response (CR) ([2]; Day 28, 15 cases assessed, prednisolone, chlorpheniramine, famotidine co-therapy): 13 | Tumor course beyond Day 7 post treatment ([2]; dog C05-T-09, Patnaik Grade III cutaneous MCT): continued to grow | RECIST reduction ([2]; dog C05-V-01, Day 21): 55% | RECIST reduction ([2]; dog C05-V-01, Day 37): 60% | RECIST reduction of residual mass ([2]; dog C05-V-01, Day 57): 70% | RECIST result of injection site ([2]; dog C05-V-01, Days 21 and 37): PR (partial response (PR, at least 30% decrease in the longest diameter of target lesion)) | Residual tumor after initial tumor reduction ([2]; dog C05-V-02, vulvar Patnaik Grade III MCT): residual tumor mass was evident by Day 21 | Number of cases with partial response (PR) ([2]; of 18 cases enrolled): 1 | Number of cases with progressive disease ([2]; of 18 cases enrolled): 2 | Number of cases with a CR RECIST result ([2]; out of eighteen (18) treated cases): 14 | Response of the five cases with leakage of IVP upon injection ([3]; SI-01, SI-02, SI-04, SI-05, SI-10, on or before the day 14 visit): complete response | Complete response: Cumulative % ([3]; Study day 7 (+2)): 82% | Complete response: Number of tumors on given study day ([3]; Study day 7 (+2)): 9 | Healing: Cumulative % ([3]; Study day 14 (+2)): 9% | Healing: Number of tumor sites healed on given study day ([3]; Study day 14 (+2)): 1 | Complete response: Cumulative % ([3]; Study day 14 (+2)): 91% | Complete response: Number of tumors on given study day ([3]; Study day 14 (+2)): 1 | Healing: Cumulative % ([3]; Study day 28 (+4)): 55% | Healing: Number of tumor sites healed on given study day ([3]; Study day 28 (+4)): 5 | Healing: Cumulative % ([3]; Study day 33): 64% | Healing: Number of tumor sites healed on given study day ([3]; Study day 33): 1 | Healing: Cumulative % ([3]; Study day 42): 73% | Healing: Number of tumor sites healed on given study day ([3]; Study day 42): 1 | Healing: Cumulative % ([3]; Study day 56): 82% | Healing: Number of tumor sites healed on given study day ([3]; Study day 56): 1 | Healing: Cumulative % ([3]; Study day 166): 91% | Healing: Number of tumor sites healed on given study day ([3]; Study day 166): 1 | Change of tumor volumes after drug treatment ([3]; all tumors with the exception of SI-03): decreased in size | Course of MCT despite drug treatment ([3]; case SI-03, withdrawn after day 28 visit): continued to enlarge | Additional healing time beyond the day 28 visit ([3]; case SI-11, tumor volume 6.8 cm^3 at day 0, dog licking site, debridement day 56): 19.7 weeks | Status of the ten responding tumors on day 28 (+4) ([3]; investigator report): remained a CR | Number of tumors with a complete response (CR) during the study ([3]; of 11 tumors): Ten | Percent of tumors with a complete response (CR) during the study ([3]; of 11 tumors): 90.9% | Number of tumors considered CR by day 7 (+2) ([3]; of ten responding tumors): nine | Number of tumors CR by day 14 (+2) ([3]; of ten responding tumors, not CR by day 7): one | Number of cases healed at the day 14 visit ([3]; tumor site healing): one | Share of tumor sites healed by the day 28 visit ([3]; tumor site healing): over half
